Measured values: ChEMBL document CHEMBL5291721, “A preclinical secondary pharmacology resource illuminates target-adverse drug reaction associations of marketed drugs” (Nat Commun, 2023)

How the values were obtained:
[1] = target: T1, Muscarinic acetylcholine receptor M2 (Homo sapiens, UniProt P08172); assay type: functional, cell-based
T1 sequence (P08172 whole entry): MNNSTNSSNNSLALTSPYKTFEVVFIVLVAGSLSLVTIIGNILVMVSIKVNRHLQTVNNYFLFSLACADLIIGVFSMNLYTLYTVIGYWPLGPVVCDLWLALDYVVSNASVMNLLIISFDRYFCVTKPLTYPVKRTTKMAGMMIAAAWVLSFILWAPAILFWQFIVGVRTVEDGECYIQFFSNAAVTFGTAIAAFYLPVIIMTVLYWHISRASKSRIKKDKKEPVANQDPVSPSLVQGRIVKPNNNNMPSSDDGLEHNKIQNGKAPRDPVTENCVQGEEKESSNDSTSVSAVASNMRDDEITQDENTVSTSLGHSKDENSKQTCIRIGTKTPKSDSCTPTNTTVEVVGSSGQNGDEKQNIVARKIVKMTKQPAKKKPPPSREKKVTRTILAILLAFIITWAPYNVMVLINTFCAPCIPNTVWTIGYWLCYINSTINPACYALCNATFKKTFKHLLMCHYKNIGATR

[2] = target: T2, Prostaglandin G/H synthase 1 (Rattus norvegicus, UniProt Q63921); assay type: functional
T2 sequence (Q63921 whole entry): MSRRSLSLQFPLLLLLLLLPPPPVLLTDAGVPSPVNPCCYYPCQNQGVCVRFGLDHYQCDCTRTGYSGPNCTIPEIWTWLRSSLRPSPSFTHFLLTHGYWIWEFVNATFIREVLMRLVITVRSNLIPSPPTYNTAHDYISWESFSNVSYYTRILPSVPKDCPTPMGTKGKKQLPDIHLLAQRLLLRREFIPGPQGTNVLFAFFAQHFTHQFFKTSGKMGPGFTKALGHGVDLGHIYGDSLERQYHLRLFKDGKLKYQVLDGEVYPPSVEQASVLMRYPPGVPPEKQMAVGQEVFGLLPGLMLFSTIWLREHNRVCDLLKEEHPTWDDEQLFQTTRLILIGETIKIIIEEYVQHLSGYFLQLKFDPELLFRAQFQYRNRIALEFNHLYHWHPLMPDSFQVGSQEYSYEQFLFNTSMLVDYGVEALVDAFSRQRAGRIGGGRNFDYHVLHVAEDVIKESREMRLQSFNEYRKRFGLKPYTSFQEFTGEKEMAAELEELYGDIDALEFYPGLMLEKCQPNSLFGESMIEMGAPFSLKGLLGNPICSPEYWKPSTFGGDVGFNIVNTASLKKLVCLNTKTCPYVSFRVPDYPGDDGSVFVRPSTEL

[3] = target: Gamma-aminobutyric acid receptor subunit alpha-1 (Rattus norvegicus, UniProt P62813); assay type: functional
Gamma-aminobutyric acid receptor subunit alpha-1, sequence (P62813 whole entry): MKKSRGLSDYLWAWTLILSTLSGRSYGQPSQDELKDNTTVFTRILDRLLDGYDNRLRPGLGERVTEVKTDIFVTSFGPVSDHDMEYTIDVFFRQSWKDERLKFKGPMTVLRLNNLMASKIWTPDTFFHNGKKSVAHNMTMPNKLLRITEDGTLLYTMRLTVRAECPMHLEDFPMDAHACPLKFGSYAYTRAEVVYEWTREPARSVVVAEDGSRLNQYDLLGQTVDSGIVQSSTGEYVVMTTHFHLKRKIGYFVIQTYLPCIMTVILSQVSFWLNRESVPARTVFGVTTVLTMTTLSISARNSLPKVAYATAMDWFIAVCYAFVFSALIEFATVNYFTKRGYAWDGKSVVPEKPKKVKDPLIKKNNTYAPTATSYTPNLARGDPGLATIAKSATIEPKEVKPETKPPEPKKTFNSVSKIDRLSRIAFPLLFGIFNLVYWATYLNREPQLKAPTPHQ

[4] = target: cGMP-inhibited 3',5'-cyclic phosphodiesterase 3A (Homo sapiens, UniProt Q14432); assay type: functional
cGMP-inhibited 3',5'-cyclic phosphodiesterase 3A, sequence (Q14432 whole entry): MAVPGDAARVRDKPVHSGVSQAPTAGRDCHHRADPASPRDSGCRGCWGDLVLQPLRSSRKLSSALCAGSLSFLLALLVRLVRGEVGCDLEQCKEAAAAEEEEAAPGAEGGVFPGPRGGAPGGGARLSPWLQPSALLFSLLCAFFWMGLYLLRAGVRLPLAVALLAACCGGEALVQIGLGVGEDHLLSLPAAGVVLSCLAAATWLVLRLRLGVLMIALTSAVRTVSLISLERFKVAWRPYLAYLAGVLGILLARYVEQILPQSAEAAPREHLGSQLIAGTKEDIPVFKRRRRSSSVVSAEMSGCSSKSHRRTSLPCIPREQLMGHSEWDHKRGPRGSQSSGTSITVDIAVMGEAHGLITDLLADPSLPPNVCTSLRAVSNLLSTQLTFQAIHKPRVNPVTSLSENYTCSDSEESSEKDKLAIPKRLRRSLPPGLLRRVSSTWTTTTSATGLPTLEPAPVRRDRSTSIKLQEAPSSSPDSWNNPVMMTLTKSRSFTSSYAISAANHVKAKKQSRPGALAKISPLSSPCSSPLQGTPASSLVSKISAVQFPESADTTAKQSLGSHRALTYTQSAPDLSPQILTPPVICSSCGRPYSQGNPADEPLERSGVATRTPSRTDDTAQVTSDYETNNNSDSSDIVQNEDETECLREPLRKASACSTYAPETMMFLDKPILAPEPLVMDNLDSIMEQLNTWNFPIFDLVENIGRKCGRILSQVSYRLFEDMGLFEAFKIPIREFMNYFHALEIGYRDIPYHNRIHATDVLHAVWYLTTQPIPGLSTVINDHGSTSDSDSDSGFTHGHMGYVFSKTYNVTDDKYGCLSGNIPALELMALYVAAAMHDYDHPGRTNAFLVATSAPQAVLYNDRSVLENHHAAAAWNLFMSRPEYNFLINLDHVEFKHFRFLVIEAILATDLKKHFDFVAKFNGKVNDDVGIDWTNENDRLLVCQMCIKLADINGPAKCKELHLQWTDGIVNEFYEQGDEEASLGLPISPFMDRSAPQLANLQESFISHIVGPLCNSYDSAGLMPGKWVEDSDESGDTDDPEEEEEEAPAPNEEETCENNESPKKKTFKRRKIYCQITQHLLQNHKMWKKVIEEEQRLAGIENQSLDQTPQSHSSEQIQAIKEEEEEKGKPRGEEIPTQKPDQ

[5] = target: Sodium-dependent dopamine transporter (Homo sapiens, UniProt Q01959)
Sodium-dependent dopamine transporter, sequence (Q01959 whole entry): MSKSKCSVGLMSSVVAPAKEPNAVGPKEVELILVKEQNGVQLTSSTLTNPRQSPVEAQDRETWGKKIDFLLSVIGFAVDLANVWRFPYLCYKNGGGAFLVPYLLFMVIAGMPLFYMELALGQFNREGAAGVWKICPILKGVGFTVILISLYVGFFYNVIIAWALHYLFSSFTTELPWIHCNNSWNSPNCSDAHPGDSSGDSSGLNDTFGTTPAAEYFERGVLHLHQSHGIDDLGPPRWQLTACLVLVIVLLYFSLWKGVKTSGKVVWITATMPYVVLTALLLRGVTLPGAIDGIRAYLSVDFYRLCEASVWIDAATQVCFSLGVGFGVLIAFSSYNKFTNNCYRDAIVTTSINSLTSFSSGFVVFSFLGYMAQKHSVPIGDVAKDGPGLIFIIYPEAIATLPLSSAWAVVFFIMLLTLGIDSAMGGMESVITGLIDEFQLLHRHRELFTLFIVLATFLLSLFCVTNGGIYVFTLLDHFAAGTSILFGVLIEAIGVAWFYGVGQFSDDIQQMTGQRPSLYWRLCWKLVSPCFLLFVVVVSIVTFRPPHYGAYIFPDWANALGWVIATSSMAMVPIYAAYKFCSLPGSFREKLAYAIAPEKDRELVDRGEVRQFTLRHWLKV

[6] = target: Sodium-dependent serotonin transporter (Homo sapiens, UniProt P31645)
Sodium-dependent serotonin transporter, sequence (P31645 whole entry): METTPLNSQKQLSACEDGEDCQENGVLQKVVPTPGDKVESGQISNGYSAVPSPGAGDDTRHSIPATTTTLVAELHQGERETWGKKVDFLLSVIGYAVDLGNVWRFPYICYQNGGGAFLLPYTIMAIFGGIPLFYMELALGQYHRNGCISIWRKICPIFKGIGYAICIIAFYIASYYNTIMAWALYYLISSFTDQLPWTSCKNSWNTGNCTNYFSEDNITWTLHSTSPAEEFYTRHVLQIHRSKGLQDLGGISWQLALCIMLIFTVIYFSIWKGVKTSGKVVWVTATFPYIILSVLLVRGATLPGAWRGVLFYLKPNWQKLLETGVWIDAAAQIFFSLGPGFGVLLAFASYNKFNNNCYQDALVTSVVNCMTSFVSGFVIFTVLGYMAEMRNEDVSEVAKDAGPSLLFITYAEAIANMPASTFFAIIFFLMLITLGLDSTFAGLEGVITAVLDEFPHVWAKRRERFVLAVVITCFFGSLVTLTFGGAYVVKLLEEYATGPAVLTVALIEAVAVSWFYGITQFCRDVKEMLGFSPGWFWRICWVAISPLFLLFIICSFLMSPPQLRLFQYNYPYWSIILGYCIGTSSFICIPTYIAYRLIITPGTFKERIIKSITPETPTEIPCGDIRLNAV

[7] = target: Delta-type opioid receptor (Homo sapiens, UniProt P41143)
Delta-type opioid receptor, sequence (P41143 whole entry): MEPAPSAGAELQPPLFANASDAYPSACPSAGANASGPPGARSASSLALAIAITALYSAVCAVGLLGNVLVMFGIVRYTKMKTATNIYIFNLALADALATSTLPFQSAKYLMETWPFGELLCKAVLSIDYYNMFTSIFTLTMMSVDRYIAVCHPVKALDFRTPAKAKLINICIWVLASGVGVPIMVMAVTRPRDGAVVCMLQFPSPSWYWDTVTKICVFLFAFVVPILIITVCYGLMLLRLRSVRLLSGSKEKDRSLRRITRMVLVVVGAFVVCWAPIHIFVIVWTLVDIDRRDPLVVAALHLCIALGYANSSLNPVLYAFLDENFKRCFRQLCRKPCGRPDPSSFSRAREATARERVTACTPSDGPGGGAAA

[8] = target: 5-hydroxytryptamine receptor 2A (Homo sapiens, UniProt P28223); assay type: functional, cell-based
5-hydroxytryptamine receptor 2A, sequence (P28223 whole entry): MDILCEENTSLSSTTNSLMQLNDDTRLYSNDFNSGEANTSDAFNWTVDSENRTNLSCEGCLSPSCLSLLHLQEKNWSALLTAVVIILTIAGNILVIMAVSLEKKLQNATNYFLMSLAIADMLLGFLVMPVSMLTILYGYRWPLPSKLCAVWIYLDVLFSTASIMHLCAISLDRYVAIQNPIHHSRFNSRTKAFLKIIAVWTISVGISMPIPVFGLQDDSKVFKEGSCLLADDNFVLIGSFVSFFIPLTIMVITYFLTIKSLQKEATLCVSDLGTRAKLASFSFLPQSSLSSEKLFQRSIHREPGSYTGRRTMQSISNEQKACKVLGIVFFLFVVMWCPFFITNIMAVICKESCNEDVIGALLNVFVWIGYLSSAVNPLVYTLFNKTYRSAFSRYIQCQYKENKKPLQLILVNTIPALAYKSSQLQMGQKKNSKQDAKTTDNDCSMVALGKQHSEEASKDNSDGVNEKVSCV

[9] = target: 5-hydroxytryptamine receptor 2B (Homo sapiens, UniProt P41595); assay type: functional, cell-based
5-hydroxytryptamine receptor 2B, sequence (P41595 whole entry): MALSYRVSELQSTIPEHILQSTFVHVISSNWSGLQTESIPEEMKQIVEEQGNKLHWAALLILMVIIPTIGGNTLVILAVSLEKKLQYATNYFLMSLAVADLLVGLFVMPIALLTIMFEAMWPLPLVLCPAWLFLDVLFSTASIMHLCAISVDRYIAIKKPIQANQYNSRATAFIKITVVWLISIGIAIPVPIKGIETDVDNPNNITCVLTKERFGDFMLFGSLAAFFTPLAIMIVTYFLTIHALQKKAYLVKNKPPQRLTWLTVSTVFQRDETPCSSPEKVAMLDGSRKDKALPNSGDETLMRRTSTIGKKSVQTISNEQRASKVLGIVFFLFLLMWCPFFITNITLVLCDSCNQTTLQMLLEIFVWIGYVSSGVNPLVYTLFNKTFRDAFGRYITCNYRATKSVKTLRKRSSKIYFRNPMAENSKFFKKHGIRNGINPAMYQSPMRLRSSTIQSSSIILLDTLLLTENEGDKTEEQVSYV

Progesterone receptor = target: T3, Progesterone receptor (Homo sapiens, UniProt P06401); assay type: functional
T3 sequence (P06401 whole entry): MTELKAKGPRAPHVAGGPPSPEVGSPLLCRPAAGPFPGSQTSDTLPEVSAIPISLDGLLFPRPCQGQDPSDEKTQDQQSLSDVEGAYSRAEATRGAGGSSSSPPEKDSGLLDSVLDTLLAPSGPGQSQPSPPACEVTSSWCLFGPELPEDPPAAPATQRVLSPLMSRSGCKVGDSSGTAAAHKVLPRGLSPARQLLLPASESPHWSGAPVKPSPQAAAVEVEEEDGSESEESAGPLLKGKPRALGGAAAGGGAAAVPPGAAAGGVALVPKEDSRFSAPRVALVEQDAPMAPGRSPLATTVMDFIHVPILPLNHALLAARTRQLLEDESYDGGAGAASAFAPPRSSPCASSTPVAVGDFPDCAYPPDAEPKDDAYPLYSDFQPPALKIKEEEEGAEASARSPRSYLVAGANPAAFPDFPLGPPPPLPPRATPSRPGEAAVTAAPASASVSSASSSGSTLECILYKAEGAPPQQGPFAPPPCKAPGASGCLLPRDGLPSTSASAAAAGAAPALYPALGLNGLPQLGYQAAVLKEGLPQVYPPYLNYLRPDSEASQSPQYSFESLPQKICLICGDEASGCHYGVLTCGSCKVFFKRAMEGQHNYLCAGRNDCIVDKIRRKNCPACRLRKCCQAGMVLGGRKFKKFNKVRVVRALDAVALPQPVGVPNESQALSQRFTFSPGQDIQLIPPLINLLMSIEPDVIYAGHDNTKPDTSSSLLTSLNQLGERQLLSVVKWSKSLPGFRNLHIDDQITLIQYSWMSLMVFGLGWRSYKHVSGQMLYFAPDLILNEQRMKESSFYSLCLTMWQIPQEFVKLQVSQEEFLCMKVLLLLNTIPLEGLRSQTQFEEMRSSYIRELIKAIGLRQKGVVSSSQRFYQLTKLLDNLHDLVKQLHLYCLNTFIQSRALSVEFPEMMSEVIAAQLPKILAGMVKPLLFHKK

Endothelin-1 receptor = target: T4, Endothelin-1 receptor (Homo sapiens, UniProt P25101)
T4 sequence (P25101 whole entry): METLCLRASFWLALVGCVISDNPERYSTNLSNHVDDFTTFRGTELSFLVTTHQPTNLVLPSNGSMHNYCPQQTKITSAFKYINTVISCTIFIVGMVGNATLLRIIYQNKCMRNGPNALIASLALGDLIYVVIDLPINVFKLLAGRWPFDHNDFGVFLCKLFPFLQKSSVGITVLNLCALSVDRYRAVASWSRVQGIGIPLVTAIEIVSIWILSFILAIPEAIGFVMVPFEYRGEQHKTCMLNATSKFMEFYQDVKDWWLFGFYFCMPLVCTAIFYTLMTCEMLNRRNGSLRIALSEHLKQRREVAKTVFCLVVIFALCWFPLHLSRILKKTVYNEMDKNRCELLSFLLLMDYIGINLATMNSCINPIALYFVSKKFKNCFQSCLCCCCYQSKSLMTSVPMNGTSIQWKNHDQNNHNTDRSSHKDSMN

Cannabinoid receptor 1 = Cannabinoid receptor 1 (Homo sapiens, UniProt P21554); assay type: functional, cell-based
Cannabinoid receptor 1, sequence (P21554 whole entry): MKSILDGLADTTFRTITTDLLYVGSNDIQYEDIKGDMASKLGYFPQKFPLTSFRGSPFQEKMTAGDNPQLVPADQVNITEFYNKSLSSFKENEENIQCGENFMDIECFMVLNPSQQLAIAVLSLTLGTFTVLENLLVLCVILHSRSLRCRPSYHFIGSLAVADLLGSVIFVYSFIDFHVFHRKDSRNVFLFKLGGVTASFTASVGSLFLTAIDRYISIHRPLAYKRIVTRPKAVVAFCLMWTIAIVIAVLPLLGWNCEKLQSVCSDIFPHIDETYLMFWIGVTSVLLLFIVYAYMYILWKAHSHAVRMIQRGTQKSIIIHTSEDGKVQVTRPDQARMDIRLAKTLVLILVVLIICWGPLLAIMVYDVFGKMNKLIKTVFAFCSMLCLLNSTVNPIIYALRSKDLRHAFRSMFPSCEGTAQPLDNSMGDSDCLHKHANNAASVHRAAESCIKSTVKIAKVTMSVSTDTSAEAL
Note: assay procedure not described here.

| SMILES | AC50 [1] [µM] | AC50 [2] [µM] | AC50 [3] [µM] | AC50 [4] [µM] | AC50 [5] [µM] | AC50 [6] [µM] | AC50 [7] [µM] | AC50 [8] [µM] | AC50 [9] [µM] | AC50 (Progesterone receptor) [µM] | AC50 (Endothelin-1 receptor) [µM] | AC50 (Cannabinoid receptor 1) [µM] |
| --- | --- | --- | --- | --- | --- | --- | --- | --- | --- | --- | --- | --- |
| O=C(O)CCCCCCCC(=O)O [AZELAIC ACID] | > 10 | > 10 | > 10 | > 30 | > 10 | > 10 | > 30 | > 10 | > 10 | > 10 | – | – |
| C=CCC1(CC(C)C)C(=O)NC(=O)NC1=O [BUTALBITAL] | > 10 | > 10 | > 10 | > 30 | > 10 | > 10 | > 30 | > 10 | > 10 | > 10 | – | – |
| O=C(O)C1=C(CSc2nnnn2CS(=O)(=O)O)CS[C@@H]2[C@H](NC(=O)[C@H](O)c3ccccc3)C(=O)N12 [CEFONICID] | > 30 | > 30 | > 30 | > 30 | > 30 | 30 | > 30 | > 30 | > 30 | > 30 | – | – |
| Cc1cc(O)c(C(=O)N[C@@H](C(=O)N[C@@H]2C(=O)N3C(C(=O)O)=C(CSc4nnnn4C)CS[C@H]23)c2ccc(O)cc2)cn1 [CEFPIRAMIDE] | > 30 | > 30 | > 30 | > 30 | > 30 | > 30 | > 30 | > 30 | > 30 | > 30 | – | – |
| Nc1nc(/C(=C/CC(=O)O)C(=O)N[C@@H]2C(=O)N3C(C(=O)O)=CCS[C@H]23)cs1 [CEFTIBUTEN] | > 30 | > 30 | > 30 | > 30 | > 30 | > 30 | > 30 | > 30 | > 30 | > 30 | – | – |
| CC1(C)O[C@@H]2C[C@H]3[C@@H]4CCC5=CC(=O)C=C[C@]5(C)[C@H]4[C@@H](O)C[C@]3(C)[C@]2(C(=O)CO)O1 [DESONIDE] | > 10 | > 10 | > 10 | > 30 | > 10 | > 10 | > 30 | > 10 | > 10 | 0.065 | – | – |
| C[C@]1(O)CC[C@H]2[C@@H]3CCC4=CC(=O)CC[C@]4(C)[C@@]3(F)[C@@H](O)C[C@@]21C [FLUOXYMESTERONE] | > 10 | > 10 | > 10 | > 30 | > 10 | > 10 | > 30 | > 10 | > 10 | 0.074 | – | – |
| CCCC(=O)O[C@]1(C(=O)CO)CC[C@H]2[C@@H]3CCC4=CC(=O)CC[C@]4(C)[C@H]3[C@@H](O)C[C@@]21C [HYDROCORTISONE BUTYRATE] | > 10 | > 10 | > 10 | > 30 | > 10 | > 10 | > 30 | > 10 | > 10 | 0.042 | – | – |
| CO[C@@H]1[C@@H](O[C@@H]2O[C@H](C)[C@@H](O[C@H]3C[C@@](C)(O)[C@@H](OC(=O)CC(C)C)[C@H](C)O3)[C@H](N(C)C)[C@H]2O)[C@@H](CC=O)C[C@@H](C)[C@@H](O)/C=C/C=C/C[C@@H](C)OC(=O)C[C@H]1OC(C)=O [JOSAMYCIN] | > 10 | > 10 | > 10 | > 30 | > 10 | > 10 | > 30 | > 10 | > 10 | > 10 | – | – |
| COC(=O)C1=C(C)NC(C)=C(C(=O)OC(C)(C)CN(C)CCC(c2ccccc2)c2ccccc2)C1c1cccc([N+](=O)[O-])c1 (centres undefined) [LERCANIDIPINE] | > 30 | 18.7 | > 30 | 25 | 35.7 | > 30 | > 30 | > 30 | > 30 | > 30 | – | – |
| C[C@H](N)[C@H](O)c1cccc(O)c1 [METARAMINOL] | > 10 | > 10 | > 10 | > 30 | > 10 | > 10 | > 30 | 35 | 12 | > 10 | – | – |
| O=C(O)[C@H](CC(=O)N1C[C@H]2CCCC[C@H]2C1)Cc1ccccc1 [MITIGLINIDE] | > 10 | > 10 | > 10 | > 30 | > 10 | > 10 | > 30 | > 10 | > 10 | > 10 | – | – |
| CCCC(C)C1(CC)C(=O)NC(=O)NC1=O (centres undefined) [PENTOBARBITAL] | > 10 | > 10 | – | > 30 | > 10 | > 10 | 19 | > 10 | > 10 | > 10 | – | – |
| O=C(O)C[C@H](O)C[C@H](O)/C=C/c1c(C2CC2)nc2ccccc2c1-c1ccc(F)cc1 [PITAVASTATIN] | > 30 | > 30 | > 10 | > 30 | > 30 | > 10 | > 30 | > 30 | > 10 | > 30 | – | – |
| CN1CCN(CC/C=C2/c3ccccc3Sc3ccc(S(=O)(=O)N(C)C)cc32)CC1 [THIOTHIXENE] | > 10 | > 30 | > 10 | 11 | 6.26 | > 10 | > 10 | – | > 10 | – | > 30 | > 30 |
